Results reported in patent US9717728B2, “Pharmaceutical combination comprising a B-Raf inhibitor and a histone deacetylase inhibitor and their use in the treatment of proliferative diseases” (NOVARTIS AG, priority 2012, dated 2017).
“Also recorded” adds a separate entry of the source.

How the values were obtained:
[1] = tested on: melanoma lines; experiment: Cell cycle arrest and apoptosis in matched pre and post melanoma cell lines; format: cell-based, human; settings: B-Raf-mutant melanoma, listed as B-Raf inhibitor of Formula (I)
Method: The B-Raf inhibitor of Formula (I) was tested on the matched pre and post cell lines established from patients before treatment and after progression on vemurafenib treatment. […] Combining panobinostat with the B-Raf inhibitor of Formula (I), caused a synergistic increase in apoptosis in melanoma lines. The increase in apoptosis was also observed in the “post” cell lines which had previously acquired resistance to the B-Raf inhibitor, vemurafenib.

[2] = tested on: Mel-P3-Pre; experiment: Cell cycle staining and sub-G1 analysis of dead cells (flow cytometry); format: cell-based, human; settings: for CELL CYCLE AVG G1 / CELL CYCLE AVG G2/M / CELL CYCLE AVG S / sub-G1 %: Mel-P3-Pre, 48 hours
Text: (§1) Cell lines: Mel-PX-Pre and Mel-PX-post represent cell lines derived from patient-X pre- and post-treatment with vemurafenib.

[3] = tested on: Mel-P3-Post; experiment: as above; format: cell-based, human; settings: for CELL CYCLE AVG G1 / CELL CYCLE AVG G2/M / CELL CYCLE AVG S / sub-G1 %: Mel-P3-Post, 48 hours
Text: as §1

[4] = tested on: Mel-P1-Post; experiment: Sub-G1 analysis of dead cells; format: cell-based, human; settings: 48 hours
Text: as §1

[5] = tested on: Mel-P1-Pre; experiment: Sub-G1 analysis of dead cells; format: cell-based, human; settings: 48 hours
Text: as §1

[6] = tested on: Mel-P4-Pre; experiment: Sub-G1 analysis of dead cells; format: cell-based, human; settings: 48 hours
Text: as §1

[7] = tested on: Mel-P4-Post; experiment: Sub-G1 analysis of dead cells; format: cell-based, human; settings: 48 hours
Text: as §1

[8] = tested on: Melanocytes (NHEM); experiment: Cell cycle staining and sub-G1 analysis of dead cells (flow cytometry); format: cell-based; settings: for CELL CYCLE AVG G1 / CELL CYCLE AVG G2/M / CELL CYCLE AVG S / sub-G1 %: Melanocytes (NHEM), 48 hours
[9] = tested on: Mel-P3-Pre; experiment: Annexin-V staining per quadrant (flow cytometry); format: cell-based, human; settings: 48 hours
Text: as §1

[10] = tested on: Mel-P3-Post; experiment: Annexin-V staining per quadrant (flow cytometry); format: cell-based, human; settings: 48 hours
Text: as §1

[11] = tested on: Mel-P3-Post; experiment: z-VAD-fmk-FITC staining for caspase positive cells; format: cell-based, human; settings: 48 hours
Text: as §1

[12] = tested on: Mel-P3-Post; experiment: JC1 staining for mitochondrial depolarisation; format: cell-based, human
Text: as §1

COC(=O)N[C@@H](C)CNc1nccc(-c2cn(C(C)C)nc2-c2cc(Cl)cc(NS(C)(=O)=O)c2F)n1 [B-Raf]
cell cycle arrest and apoptosis (in words) [1]: potent cell cycle inhibition and cell line-dependent apoptosis; also recorded: potent G1 arrest and cell-line dependent apoptosis
CELL CYCLE AVG G1 ([2]; B-Raf 0.1 uM, HDAI 0 nM): 85
CELL CYCLE AVG G2/M ([2]; B-Raf 0.1 uM, HDAI 0 nM): 6
CELL CYCLE AVG S ([2]; B-Raf 0.1 uM, HDAI 0 nM): 10
sub-G1 % ([2]; B-Raf 0.1 uM, HDAI 0 nM): 10%
CELL CYCLE AVG G1 ([2]; B-Raf 1 uM, HDAI 0 nM): 90
CELL CYCLE AVG G2/M ([2]; B-Raf 1 uM, HDAI 0 nM): 6
CELL CYCLE AVG S ([2]; B-Raf 1 uM, HDAI 0 nM): 5
sub-G1 % ([2]; B-Raf 1 uM, HDAI 0 nM): 12%
CELL CYCLE AVG G1 ([2]; B-Raf 10 uM, HDAI 0 nM): 92
CELL CYCLE AVG G2/M ([2]; B-Raf 10 uM, HDAI 0 nM): 4
CELL CYCLE AVG S ([2]; B-Raf 10 uM, HDAI 0 nM): 4
sub-G1 % ([2]; B-Raf 10 uM, HDAI 0 nM): 20%
G1 arrest (in words) ([2]; Mel-P3 “pre” cell line): potent G1 arrest
apoptosis (in words) ([2]; Mel-P3 “pre” cell line): low level apoptosis
CELL CYCLE AVG G1 ([3]; B-Raf 0.1 uM, HDAI 0 nM): 65
CELL CYCLE AVG G2/M ([3]; B-Raf 0.1 uM, HDAI 0 nM): 12
CELL CYCLE AVG S ([3]; B-Raf 0.1 uM, HDAI 0 nM): 23
sub-G1 % ([3]; B-Raf 0.1 uM, HDAI 0 nM): 2%
CELL CYCLE AVG G1 ([3]; B-Raf 1 uM, HDAI 0 nM): 68
CELL CYCLE AVG G2/M ([3]; B-Raf 1 uM, HDAI 0 nM): 10
CELL CYCLE AVG S ([3]; B-Raf 1 uM, HDAI 0 nM): 22
sub-G1 % ([3]; B-Raf 1 uM, HDAI 0 nM): 2%
CELL CYCLE AVG G1 ([3]; B-Raf 10 uM, HDAI 0 nM): 72
CELL CYCLE AVG G2/M ([3]; B-Raf 10 uM, HDAI 0 nM): 7
CELL CYCLE AVG S ([3]; B-Raf 10 uM, HDAI 0 nM): 21
sub-G1 % ([3]; B-Raf 10 uM, HDAI 0 nM): 4%
G1 arrest (in words) ([3]; Mel-P3 “post” cell line): weaker G1 arrest
apoptosis (in words) ([3]; Mel-P3 “post” cell line): no apoptosis
sub-G1 % ([4]; B-Raf 10 uM, HDAI 0 nM): 10%
sub-G1 % ([5]; B-Raf 10 uM, HDAI 0 nM): 10%
sub-G1 % ([6]; B-Raf 10 uM, HDAI 0 nM): 58%
sub-G1 % ([7]; B-Raf 10 uM, HDAI 0 nM): 54%
cell death of melanocytes (in words) [8]: did not die
CELL CYCLE AVG G1 ([8]; B-Raf 10 uM, HDAI 0 nM): 98
CELL CYCLE AVG G2/M ([8]; B-Raf 10 uM, HDAI 0 nM): 1
CELL CYCLE AVG S ([8]; B-Raf 10 uM, HDAI 0 nM): 1
sub-G1 % ([8]; B-Raf 10 uM, HDAI 0 nM): 3%
Annexin Staining per quadrant. Lower Left* (“healthy” cells) ([9]; B-Raf 0.1 uM, HDAI 0 nM): 88
Annexin Staining per quadrant. Lower Right ([9]; B-Raf 0.1 uM, HDAI 0 nM): 7
Annexin Staining per quadrant. Upper Left ([9]; B-Raf 0.1 uM, HDAI 0 nM): 0
Annexin Staining per quadrant. Upper Right ([9]; B-Raf 0.1 uM, HDAI 0 nM): 4
Annexin Staining per quadrant. Lower Left* (“healthy” cells) ([9]; B-Raf 1 uM, HDAI 0 nM): 85
Annexin Staining per quadrant. Lower Right ([9]; B-Raf 1 uM, HDAI 0 nM): 8
Annexin Staining per quadrant. Upper Left ([9]; B-Raf 1 uM, HDAI 0 nM): 0
Annexin Staining per quadrant. Upper Right ([9]; B-Raf 1 uM, HDAI 0 nM): 6
Annexin Staining per quadrant. Lower Left* (“healthy” cells) ([9]; B-Raf 10 uM, HDAI 0 nM): 73
Annexin Staining per quadrant. Lower Right ([9]; B-Raf 10 uM, HDAI 0 nM): 13
Annexin Staining per quadrant. Upper Left ([9]; B-Raf 10 uM, HDAI 0 nM): 1
Annexin Staining per quadrant. Upper Right ([9]; B-Raf 10 uM, HDAI 0 nM): 13
Annexin Staining per quadrant. Lower Left* (“healthy” cells) ([10]; B-Raf 0.1 uM, HDAI 0 nM): 91
Annexin Staining per quadrant. Lower Right ([10]; B-Raf 0.1 uM, HDAI 0 nM): 5
Annexin Staining per quadrant. Upper Left ([10]; B-Raf 0.1 uM, HDAI 0 nM): 0
Annexin Staining per quadrant. Upper Right ([10]; B-Raf 0.1 uM, HDAI 0 nM): 4
Annexin Staining per quadrant. Lower Left* (“healthy” cells) ([10]; B-Raf 1 uM, HDAI 0 nM): 91
Annexin Staining per quadrant. Lower Right ([10]; B-Raf 1 uM, HDAI 0 nM): 5
Annexin Staining per quadrant. Upper Left ([10]; B-Raf 1 uM, HDAI 0 nM): 0
Annexin Staining per quadrant. Upper Right ([10]; B-Raf 1 uM, HDAI 0 nM): 4
Annexin Staining per quadrant. Lower Left* (“healthy” cells) ([10]; B-Raf 10 uM, HDAI 0 nM): 89
Annexin Staining per quadrant. Lower Right ([10]; B-Raf 10 uM, HDAI 0 nM): 5
Annexin Staining per quadrant. Upper Left ([10]; B-Raf 10 uM, HDAI 0 nM): 0
Annexin Staining per quadrant. Upper Right ([10]; B-Raf 10 uM, HDAI 0 nM): 6
z-VAD-fmk positive ([11]; B-Raf 5 uM, HDAI 0 nM): 14
Depolarised mitochondria ([12]; B-Raf 5 uM, HDAI 0, 48 hours): 88

Cc1[nH]c2ccccc2c1CCNCc1ccc(/C=C/C(=O)NO)cc1 [HDAI, reference compound]
CELL CYCLE AVG G1 ([2]; B-Raf 0 uM, HDAI 30 nM): 70
CELL CYCLE AVG G2/M ([2]; B-Raf 0 uM, HDAI 30 nM): 21
CELL CYCLE AVG S ([2]; B-Raf 0 uM, HDAI 30 nM): 9
sub-G1 % ([2]; B-Raf 0 uM, HDAI 30 nM): 17%
CELL CYCLE AVG G1 ([3]; B-Raf 0 uM, HDAI 30 nM): 69
CELL CYCLE AVG G2/M ([3]; B-Raf 0 uM, HDAI 30 nM): 22
CELL CYCLE AVG S ([3]; B-Raf 0 uM, HDAI 30 nM): 9
sub-G1 % ([3]; B-Raf 0 uM, HDAI 30 nM): 15%
sub-G1 % ([4]; B-Raf 0 uM, HDAI 30 nM): 14%
sub-G1 % ([5]; B-Raf 0 uM, HDAI 30 nM): 21%
sub-G1 % ([6]; B-Raf 0 uM, HDAI 30 nM): 40%
sub-G1 % ([7]; B-Raf 0 uM, HDAI 30 nM): 24%
cell death of melanocytes (in words) [8]: did not die
CELL CYCLE AVG G1 ([8]; B-Raf 0 uM, HDAI 30 nM): 88
CELL CYCLE AVG G2/M ([8]; B-Raf 0 uM, HDAI 30 nM): 7
CELL CYCLE AVG S ([8]; B-Raf 0 uM, HDAI 30 nM): 5
sub-G1 % ([8]; B-Raf 0 uM, HDAI 30 nM): 1%
Annexin Staining per quadrant. Lower Left* (“healthy” cells) ([9]; B-Raf 0 uM, HDAI 30 nM): 85
Annexin Staining per quadrant. Lower Right ([9]; B-Raf 0 uM, HDAI 30 nM): 8
Annexin Staining per quadrant. Upper Left ([9]; B-Raf 0 uM, HDAI 30 nM): 1
Annexin Staining per quadrant. Upper Right ([9]; B-Raf 0 uM, HDAI 30 nM): 6
Annexin Staining per quadrant. Lower Left* (“healthy” cells) ([10]; B-Raf 0 uM, HDAI 30 nM): 83
Annexin Staining per quadrant. Lower Right ([10]; B-Raf 0 uM, HDAI 30 nM): 9
Annexin Staining per quadrant. Upper Left ([10]; B-Raf 0 uM, HDAI 30 nM): 0
Annexin Staining per quadrant. Upper Right ([10]; B-Raf 0 uM, HDAI 30 nM): 8
z-VAD-fmk positive ([11]; B-Raf 0 uM, HDAI 30 nM): 23
Depolarised mitochondria ([12]; B-Raf 0 uM, HDAI 30, 48 hours): 86
